Data: patent US6166290A, “Glutathione-S-conjugate transport in plants” (The Trustees of the University of Pennsylvania, priority 1997, dated 2000)
Like-named read-outs stand apart in the source and are kept apart here.

How the values were obtained:
DTY165 cells = experiment: Growth inhibition of DTY165 (wild type) cells by CDNB; assay type: cell-based; details: Saccharomyces cerevisiae, 24 hours, read-out: diminution of optical density of culture
Procedure: (§1) FIGS. 1A-1B are a series of graphs depicting differential sensitivities of DYT165 cells (wild type, FIG. 1A) and DTY167 cells (ycf1Δ mutant, FIG. 1B) to growth inhibition by 1-chloro-2,4-dinitrobenzene (CDNB). Cells were grown at 30° C. for 24 hours to an OD600 nm of approximately 1.4 in YPD medium before inoculation of aliquots into 15 ml volumes of the same medium containing 0-60 μM CDNB. OD600 nm was measured at the times indicated.
(§2) Two strains of S. cerevisiae were used in these studies: DTY165 (MATα ura3-52 his6 leu2-3,-112 his3-Δ200 trp1-901 lys2-801 suc2-Δ) and the isogenic ycf1Δ mutant strain, DTY167 (MATα ura 3-52 his6 leu2-3,-112 his3-Δ200 trp 1-901 lys2-801 suc2-Δ, ycf1::hisG). The strains were routinely grown in rich (YPD) medium, or, when transformed with plasmid containing functional YCF1 gene, in synthetic complete medium (Sherman et al., 1983, Methods in Yeast Genetics, Cold Spring Harbor Laboratory, New York) or AHC medium (Kim et al., 1994, supra) lacking the appropriate amino acids. Escherichia coli strains XL1-blue (Stratagene) and DH11S were employed for the construction and maintenance of plasmid stocks (Ausubel et al., 1987, Current Protocols in Molecular Biology, Wiley, New York).
(§3) The isogenic wild type strain DTY165 and the ycf1Δ mutant strain, DTY167, were indistinguishable during growth in YPD medium lacking CDNB; both strains grew at the same rate after a brief lag. However, the addition of CDNB to the culture medium caused a greater retardation of the growth of DTY167 cells (FIG. 1B) than DTY165 cells (FIG. 1A). […] The optical densities of the DTY167 cultures were diminished by 65, 82, 85, and 91% by 40, 50, 60, and 70 μM CDNB, respectively, after 24 hours of incubation (FIG. 1B), whereas the corresponding diminutions for the DTY165 cultures were 14, 31, 59, and 92% (FIG. 1A). The increase in sensitivity to CDNB conferred by deletion of the YCF1 gene was similar to that seen with cadmium.

DTY167 cells = experiment: Growth inhibition of DTY167 (ycf1Δ mutant) cells by CDNB; assay type: cell-based; details: Saccharomyces cerevisiae, 24 hours, read-out: diminution of optical density of culture
Procedure: as §1, §2, §3

[1] = biological target: T1, YCF1 (vacuolar membrane vesicles purified from DTY165 cells) (Saccharomyces cerevisiae, UniProt P39109); experiment: [3H]DNP-GS uptake by vacuolar membrane vesicles purified from DTY165 cells; assay type: biochemical; details: for IC50: 5 μM gramicidin D, read-out: I50 for MgATP-dependent, uncoupler-insensitive DNP-GS uptake
T1 construct: endogenous in cells; host or cells: S. cerevisiae DTY165 (wild type YCF1), vacuolar membrane vesicles
Procedure: (§4) For the routine preparation of vacuolar membrane vesicles, 15 ml of stationary phase cultures of DTY165 or DTY167 were diluted into 1-liter volumes of fresh YPD medium, grown for 24 hours at 30° C. to an OD600 nm of approximately 0.8 and collected by centrifugation. After washing with distilled water, the cells were converted to spheroplasts with Zymolyase 20T (ICN) (Kim et al., 1994, supra) and intact vacuoles were isolated by flotation centrifugation of spheroplast lysates on Ficoll 400 step gradients as described by Roberts et al. (1991, Methods. Enzymol. 194:644-661). Both the spheroplast lysis buffer and Ficoll gradients contained 2 mg/ml bovine serum albumin, 1 μg/ml aprotinin, 1 μg/ml leupeptin, 1 μg/ml pepstatin, and 1 mM PMSF to minimize proteolysis. The resulting vacuole fraction was vesiculated in 5 mM MgCl2, 25 mM KCl, 10 mM Tris-Mes (pH 6.9) containing 2 mg/ml bovine serum albumin, 1 μg/ml aprotinin, 1 μg/ml leupeptin, 1 μg/ml pepstatin, and 1 mM PMSF, pelleted by centrifugation at 37,000× g for 25 min, and resuspended in suspension medium (1.1 M glycerol, 2 mM dithiothreitol, 1 mM Tris-EGTA, 2 mg/ml bovine serum albumin, 1 μg/ml aprotinin, 1 μg/ml leupeptin, 1 μg/ml pepstatin, 1 mM PMSF, 5 mM Tris-Mes, pH 7.6) (Kim et al., 1995, J. Biol. Chem. 270:2630-2635).
(§5) Unless otherwise indicated, [^3 H]DNP-GS uptake was measured at 25° C. in 200 μl reaction volumes containing 3 mM ATP, 3 mM MgSO4, 5 μM gramicidin-D, 10 mM creatine phosphate, 16 units/ml creatine kinase, 50 mM KC 1, 1 mg/ml bovine serum albumin, 400 mM sorbitol, 25 mM Tris-Mes (pH 8.0), and 66.2 μM [^3 H]DNP-GS (8.7 mCi/mmol) (Li et al., 1995, supra). […] Uptake was initiated by the addition of vacuolar membrane vesicles (10-15 μg of membrane protein), brief mixing of the samples on a vortex mixer and uptake was then allowed to proceed for 1-60 minutes. Uptake was terminated by the addition of 1 ml of ice-cold wash medium (400 mM sorbitol, 3 mM Tris-Mes, pH 8.0) and vacuum filtration of the suspension through prewetted Millipore HA cellulose nitrate membrane filters (pore diameter, 0.45 μm). The filters were rinsed twice with 1 ml of ice-cold wash medium and air-dried, and radioactivity was determined by liquid scintillation counting in BCS mixture (Amersham Corp.). Nonenergized [^3 H]DNP-GS uptake and extravesicular solution trapped on the filters were enumerated by the same procedure except that ATP and Mg^2 +were omitted from the uptake medium.

[2] = biological target: T1, YCF1 (vacuolar membrane vesicles purified from DTY165 cells); experiment: biochemical; assay type: biochemical; details: 24 h, read-out: increase of 109Cd.GS2 uptake into vesicles from pretreated cells
Procedure: In experiments involving cadmium transport, dithiothreitol and EGTA were removed from the suspension medium to prevent the attenuation of YCF1-dependent Cd^2+ transport otherwise exerted by these compounds. Vesiculated vacuolar membranes were subjected to three cycles of 50-fold dilution into simplified suspension medium (1.1 M glycerol, 5 mM Tris-Mes, pH 8.0), centrifugation at 100,000× g for 35 minutes and resuspension in the same medium before use.
Singly radiolabeled ^109 Cd.GSn and doubly radio-labeled ^109 Cd[^3 H].GS^n complexes were prepared by sequential gel-filtrationand anion-exchange chromatography of the reaction products generated by incubating 20 mM ^109 CdSO4 (78.4 mCi/mmol) with 40 mM GSH or 40 mM [^3 H]GSH (240 mCi/mmol) in 15 ml 10 mM phosphate buffer (pH 8.0) containing 150 mM KNO3 at 45° C. for 24 hours. For gel-filtration, 2 ml aliquots of the reaction mixture were applied to a column (40×1.5 cm ID) packed with water-equilibrated Sephadex G-1 5, eluted with deionized water and ^109 Cd and/or ^3 H in the fractions was measured by liquid scintillation counting. The fractions encompassed by each of the two ^109 Cd.GSn peaks identified were pooled, lyophilized and redissolved in 4 ml of loading buffer (5 mM Tris-Mes, pH 8.0). For anion-exchange chromatography, 0.5 ml aliquots of the resuspended lyophilizates from gel-filtration chromatography were applied to a Mono-Q HR5/5 column (Pharmacia) equilibrated with the same buffer. Elution was with a linear gradient of NaCl (0.5 ml/minute; 0-500 mM) dissolved in loading buffer. The individual fractions corresponding to the major peaks of ^109 Cd obtained from the Mono-Q column (one each for the peaks resolved by gel-filtration chromatography) were pooled, lyophilized and resuspended in 4 ml deionized water after liquid scintillation counting.
MgATP-energized, uncoupler-insensitive ^109 Cd^2+ uptake by vacuolar membrane vesicles was measured at 25° C. in 200 μl reaction volumes containing 3 mM ATP, 3 mM MgSO4, 5 μM gramicidin-D, 10 mM creatine phosphate, 16 units/ml creatine kinase, 50 mM KCl, 400 mM sorbitol, 25 mM Tris-Mes (pH 8.0) and the indicated concentrations of ^109 CdSO4, GSH or ^109 Cd- and/or ^3 H-labeled purified Cd.GSn complexes as described herein except that the wash media contained 100 μM CdSO4 in addition to sorbitol (400 mM) and Tris-Mes (3 mM, pH 8.0).

[3] = tested on: endogenous GS-X pump of plant vacuolar membranes; details: cited from earlier work
[4] = tested on: vacuolar membrane vesicles purified from DTY167 cells (ycf1Δ mutant); assay type: biochemical, Saccharomyces cerevisiae; details: 5 μM gramicidin D
Procedure: as §4, §5

[5] = tested on: membrane vesicles purified from pYES3-transformed DTY168 cells; experiment: DNP-GS uptake by membrane vesicles from pYES3 (empty vector)-transformed DTY168 cells; assay type: biochemical, Saccharomyces cerevisiae
Procedure: S. cerevisiae strain DTY168 (MATα his6, leu2-3, -112, ura3-52 ycf1::hisG) was transformed with pYES3-AtMRP1 or empty vector lacking the AtMRP1 insert (pYES3) by the LiOAc/PEG method (Giest et al., 1991, Yeast 7:253-263) and selected for uracil prototrophy by plating on AHC medium containing tryptophan (Kim et al., 1994, supra).
For the preparation of membrane vesicles, 15 ml volumes of stationary phase cultures of the transformants were diluted into 1 L of fresh AHC medium and grown to an OD600 nm of about 1.2. Membrane vesicles were purified as described herein and in Kim et al. (1995, supra).
DNP-GS uptake was measured as described herein in 200 μl reaction volumes containing 3 mM ATP, 3 mM MgSO4, 5 μM gramicidin-D, 10 mM creatine phosphate, 16 units/ml creatine kinase, 50 mM KCl, 1 mg/ml BSA, 400 mM sorbitol, 25 mM Tris-Mes (pH 8.0) and the indicated concentrations of [^3 H]DNP-GS (17.4 mCi/mmol).

[6] = tested on: vacuolar GS-X pump (vacuolar membrane vesicles, V. radiata hypocotyls); experiment: GS-conjugate uptake by vacuolar membrane vesicles from etiolated hypocotyls of V. radiata; assay type: biochemical, Vigna radiata
Procedure: Values shown are means ±SE (n=3).
Vacuolar membrane vesicles were purified from etiolated hypocotyls of V. radiata cv.
Unless otherwise indicated, [^3 H]medicarpin or [3H]medicarpin-GS uptake was measured at 25° C. in 200 μl reaction volumes containing 3 mM ATP, 3 mM MgSO4, 10 mM creatine phosphate, 16 U/ml creatine kinase, 50 mM KCl, 0.1% (w/v) BSA, 400 mM sorbitol and 25 mM Tris-Mes buffer, pH 8.0. Uptake was initiated by the addition of 12 μl membrane vesicles (30-40 μg protein) and brief mixing of the samples on a vortex mixer. Uptake was terminated by the addition of 1 ml ice-cold wash medium (400 mM sorbitol, 3 mM Tris-Mes, pH 8.0) and vacuum filtration of the suspension through prewetted HA cellulose nitrate filters (pore diameter 0.45 μm). The filters were rinsed twice with a 1 ml ice-cold wash medium, air-dried and radioactivity was determined by liquid scintillation counting.

[7] = tested on: vacuolar GS-X pump (vacuolar membrane vesicles, Z. mays roots); experiment: GS-conjugate uptake by vacuolar membrane vesicles from roots of Z. mays; assay type: biochemical, Zea mays
[8] = read-out: I50 for uptake of IAA-GS

T1 sequence (P39109 whole entry): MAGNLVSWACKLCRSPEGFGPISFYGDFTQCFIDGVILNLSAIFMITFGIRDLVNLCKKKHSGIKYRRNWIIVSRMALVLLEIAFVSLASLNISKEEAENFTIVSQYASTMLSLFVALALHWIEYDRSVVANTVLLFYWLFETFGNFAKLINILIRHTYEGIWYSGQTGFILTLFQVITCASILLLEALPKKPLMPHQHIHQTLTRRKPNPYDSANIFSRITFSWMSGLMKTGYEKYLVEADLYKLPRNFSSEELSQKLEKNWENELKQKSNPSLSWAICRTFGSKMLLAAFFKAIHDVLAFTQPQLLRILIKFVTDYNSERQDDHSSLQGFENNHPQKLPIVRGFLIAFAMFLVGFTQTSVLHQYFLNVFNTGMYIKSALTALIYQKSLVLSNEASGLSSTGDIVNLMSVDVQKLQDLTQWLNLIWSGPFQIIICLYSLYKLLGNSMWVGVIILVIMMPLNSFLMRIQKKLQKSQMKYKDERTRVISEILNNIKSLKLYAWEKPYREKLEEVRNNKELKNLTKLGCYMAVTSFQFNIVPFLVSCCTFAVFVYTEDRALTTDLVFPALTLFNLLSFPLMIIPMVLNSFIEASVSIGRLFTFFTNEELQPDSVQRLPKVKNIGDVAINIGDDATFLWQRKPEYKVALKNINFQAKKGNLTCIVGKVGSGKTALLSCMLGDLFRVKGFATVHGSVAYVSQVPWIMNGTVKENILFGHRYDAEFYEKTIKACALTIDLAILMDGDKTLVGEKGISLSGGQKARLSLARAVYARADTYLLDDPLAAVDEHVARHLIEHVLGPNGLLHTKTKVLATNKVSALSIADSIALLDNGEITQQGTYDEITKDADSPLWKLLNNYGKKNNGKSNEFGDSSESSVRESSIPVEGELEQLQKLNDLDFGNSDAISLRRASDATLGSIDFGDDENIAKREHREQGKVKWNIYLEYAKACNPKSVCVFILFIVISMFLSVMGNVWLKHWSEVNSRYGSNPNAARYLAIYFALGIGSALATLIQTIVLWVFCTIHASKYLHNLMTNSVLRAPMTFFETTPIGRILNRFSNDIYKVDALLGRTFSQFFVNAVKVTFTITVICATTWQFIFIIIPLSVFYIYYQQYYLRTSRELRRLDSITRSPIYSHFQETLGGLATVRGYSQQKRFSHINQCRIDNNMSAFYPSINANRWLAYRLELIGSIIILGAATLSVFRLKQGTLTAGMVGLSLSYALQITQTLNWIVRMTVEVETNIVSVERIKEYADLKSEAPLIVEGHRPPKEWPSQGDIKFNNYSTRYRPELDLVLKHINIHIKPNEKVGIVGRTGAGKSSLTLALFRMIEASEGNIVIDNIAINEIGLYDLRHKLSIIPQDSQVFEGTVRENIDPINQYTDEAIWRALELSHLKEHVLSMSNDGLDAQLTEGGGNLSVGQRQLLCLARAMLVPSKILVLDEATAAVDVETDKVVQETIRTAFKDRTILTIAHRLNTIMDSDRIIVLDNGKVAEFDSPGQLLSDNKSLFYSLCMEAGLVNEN

Q: What does the source list for `O=[N+]([O-])c1ccc(Cl)c([N+](=O)[O-])c1` [CDNB, 1-chloro-2,4-dinitrobenzene]?
A: inhibition of growth at 40 µM (DTY165 cells; 40 μM CDNB): 14%; inhibition of growth at 50 µM (DTY165 cells; 50 μM CDNB): 31%; inhibition of growth at 60 µM (DTY165 cells; 60 μM CDNB): 59%; inhibition of growth at 70 µM (DTY165 cells; 70 μM CDNB): 92%; inhibition of growth at 40 µM (DTY167 cells; 40 μM CDNB): 65%; inhibition of growth at 50 µM (DTY167 cells; 50 μM CDNB): 82%; inhibition of growth at 60 µM (DTY167 cells; 60 μM CDNB): 85%; inhibition of growth at 70 µM (DTY167 cells; 70 μM CDNB): 91%; fold induction at 150 µM ([1]; 24 h, read-out: increase of [3H]DNP-GS uptake into vesicles from pretreated cells): 2.8; fold induction at 150 µM [2]: 1.7

Q: With `CCN1C(=O)CC(SC[C@H](NC(=O)CC[C@H](N)C(=O)O)C(=O)NCC(=O)O)C1=O` (stereo partly shown) [glutathione-S-N-ethylmaleimide] as the molecule, how does the Km ([3]; read-out: Km for transport by endogenous plant vacuolar GS-X pump) read?
A: 500 µM

Q: Which IC50 ([1]; listed as vanadate) does the source give for `[O]=[V]([O-])([O-])[O-]` [Vanadate] here?
A: 179 µM

Q: And the IC50 [1]?
A: 179 µM

Q: And the “I50 for MgATP-dependent, uncoupler-insensitive DNP-GS uptake” value [4]?
A: Insensitive

Q: And the “sensitivity of DNP-GS uptake to vanadate” value [5]?
A: insensitive

Q: And the IC50 ([6]; V. radiata, read-out: I50 for uptake of C3G-GS)?
A: 7.9 µM

Q: And the IC50 [6, 8]?
A: 6.5 µM

Q: And the “inhibition of MgATP-dependent [3H]medicarpin-GS uptake” value ([6]; vanadate 10 μM, DNP-GS 100 μM, gramicidin D)?
A: more than 85%

Q: And the IC50 ([7]; read-out: I50 for uptake of ABA-GS)?
A: > 150 µM

Q: What about the IC50 ([7]; read-out: I50 for uptake of C3G-GS) of the same molecule?
A: 8.2 µM

Q: And the IC50 [7, 8]?
A: 5.5 µM

Q: What about the IC50 ([3]; vanadate, read-out: I50 for inhibition of the endogenous vacuolar GS-X pump of plant cells) of the same molecule?
A: 7.5 ± 3.9 µM
